{
  "source": "patent US20250034135A1",
  "about": "“ANTI-APOPTOTIC PROTEIN BCL-2 INHIBITOR, PHARMACEUTICAL COMPOSITION AND USES THEREOF” (HANGZHOU HEALZEN THERAPEUTICS CO., LTD., priority 2021, published 2025)",
  "data": [
    {"target": "BCL2 (Homo sapiens (Human), UniProt P10415)", "sequence (P10415 whole entry)": "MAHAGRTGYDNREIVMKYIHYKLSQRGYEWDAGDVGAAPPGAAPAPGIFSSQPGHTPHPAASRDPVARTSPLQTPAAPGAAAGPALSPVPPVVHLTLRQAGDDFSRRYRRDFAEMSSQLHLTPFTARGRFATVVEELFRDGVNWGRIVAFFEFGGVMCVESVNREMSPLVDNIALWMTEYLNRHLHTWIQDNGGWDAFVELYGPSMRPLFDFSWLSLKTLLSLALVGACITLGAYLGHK", "experiment": "Molecular level activity test of anti-apoptotic protein BCL2 (HTRF, binding to Bim peptide)", "conditions": "HTRF, binding of BCL2 to Bim peptide; read-out: BCL2 nM (inhibitory activity, IC50)", "in_short": "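Signal comes from proximity of anti-His-labelled BCL2 and streptavidin-XL665-bound biotin-BIM peptide. Test compounds, added in 2% DMSO, were preincubated with protein and peptide for one hour; detection reagents then incubated four hours at room temperature before reading.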", "units": {"IC50": "nM"}, "values": [
      {"compound": "CC(C)c1ccccc1[C@@H]1CCCN1C1CC2(CCN(c3ccc(C(=O)NS(=O)(=O)c4cc([N+](=O)[O-])c(NC[C@H]5CC[C@](C)(O)CC5)c5[nH]cnc45)c(N4CCCOc5nc6[nH]ccc6cc54)c3)CC2)C1", "note": "[compound 085, 2-(3,4-dihydro-2H-pyrrolo[3′,2′:5,6]pyridino[2,3-b][1,4]oxazacyclohept-1 (7H)-yl)-N-((7-((((1r,4r)-4-hydroxy-4-methylcyclohexyl)methyl)amino)-6-nitro-1H-benzo[d]imidazol-4-yl)sulfonyl)-4-(2-((S)-2-(2-isopropylphenyl)pyrrolidin-1-yl)-7-azaspiro[3.5]non-7-yl)benzamide]", "IC50": "< 10"},
      {"compound": "CC(C)c1ccccc1[C@@H]1CCCN1C1CC2(CCN(c3ccc(C(=O)NS(=O)(=O)c4cc([N+](=O)[O-])c(NCC5(F)CCN(C(C)C)CC5)c5[nH]cnc45)c(N4CCCOc5nc6[nH]ccc6cc54)c3)CC2)C1", "note": "[compound 086, (S)-2-(3,4-dihydro-2H-pyrrolo[3′,2′:5,6]pyridino[2,3-b][1,4]oxazacyclohept-1 (7H)-yl)-N-((7-(((4-fluoro-1-isopropylpiperid-4-yl)methyl)amino)-6-nitro-1H-benzo[d]imidazol-4-yl)sulfonyl)-4-(2-(2-(2-isopropylphenyl)pyrrolidin-1-yl)-7-azaspiro[3.5]non-7-yl)benzamide]", "IC50": "< 10"},
      {"compound": "CC(C)c1ccccc1[C@@H]1CCCN1C1CC2(CCN(c3ccc(C(=O)NS(=O)(=O)c4cc([N+](=O)[O-])c(NCC5(F)CCOCC5)c5[nH]cnc45)c(N4CCOc5nc6[nH]ccc6cc54)c3)CC2)C1", "note": "[compound 087, (S)-2-(2,3-dihydropyrrolo[3′,2′:5,6]pyridino[2,3-b][1,4]oxazin-1 (6H)-yl)-N-((7-(((4-fluorotetrahydro-2H-pyran-4-yl)methyl)amino)-6-nitro-1H-benzo[d]imidazol-4-yl)sulfonyl)-4-(2-(2-(2-isopropylphenyl)pyrrolidin-1-yl)-7-azaspiro[3.5]non-7-yl)benzamide]", "IC50": "< 10"},
      {"compound": "CC(C)c1ccccc1[C@@H]1CCCN1C1CC2(CCN(c3ccc(C(=O)NS(=O)(=O)c4cc([N+](=O)[O-])c(NCC5(F)CCOCC5)c5[nH]cnc45)c(N4CCCOc5nc6[nH]ccc6cc54)c3)CC2)C1", "note": "[compound 088, (S)-2-(3,4-dihydro-2H-pyrrolo[3′,2′:5,6]pyridino[2,3-b][1,4]oxazacyclohept-1 (7H)-yl)-N-((7-(((4-fluorotetrahydro-2H-pyran-4-yl)methyl)amino)-6-nitro-1H-benzo[d]imidazol-4-yl)sulfonyl)-4-(2-(2-(2-isopropylphenyl)pyrrolidin-1-yl)-7-azaspiro[3.5]non-7-yl)benzamide]", "IC50": "< 10"},
      {"compound": "COc1ccc(CN2CCN(C3CC4(CCN(c5ccc(C(=O)NS(=O)(=O)c6cc([N+](=O)[O-])c(NC[C@H]7CC[C@](C)(O)CC7)c7[nH]cnc67)c(N6CCOc7nc8[nH]ccc8cc76)c5)CC4)C3)C(c3ccccc3C(C)C)C2)cc1", "note": "(stereo partly drawn) [compound 089, 2-(2,3-dihydropyrrolo[3′,2′:5,6]pyridino[2,3-b][1,4]oxazin-1 (6H)-yl)-N-((7-((((1r,4r)-4-hydroxy-4-methylcyclohexyl)methyl)amino)-6-nitro-1H-benzo[d]imidazol-4-yl)sulfonyl)-4-(2-(2-(2-isopropylphenyl)-4-(4-methoxybenzyl)piperazin-1-yl)-7-azaspiro[3.5]non-7-yl)benzamide]", "IC50": "< 10"},
      {"compound": "COc1ccc(CN2CCN(C3CC4(CCN(c5ccc(C(=O)NS(=O)(=O)c6cc([N+](=O)[O-])c(NC[C@H]7CC[C@](C)(O)CC7)c7[nH]cnc67)c(N6CCCOc7nc8[nH]ccc8cc76)c5)CC4)C3)C(c3ccccc3C(C)C)C2)cc1", "note": "(stereo partly drawn) [compound 090, 2-(3,4-dihydro-2H-pyrrolo[3′,2′:5,6]pyridino[2,3-b][1,4]oxazacyclohept-1 (7H)-yl)-N-((7-((((1r,4r)-4-hydroxy-4-methylcyclohexyl)methyl)amino)-6-nitro-1H-benzo[d]imidazol-4-yl)sulfonyl)-4-(2-(2-(2-isopropylphenyl)-4-(4-methoxybenzyl)piperazin-1-yl)-7-azaspiro[3.5]non-7-yl)benzamide]", "IC50": "< 10"},
      {"compound": "COc1ccc(CN2CCN(C3CC4(CCN(c5ccc(C(=O)NS(=O)(=O)c6cc([N+](=O)[O-])c(NCC7CCOCC7)c7[nH]cnc67)c(N6CCOc7nc8[nH]ccc8cc76)c5)CC4)C3)C(c3ccccc3C(C)C)C2)cc1", "note": "(stereo not drawn) [compound 091, 2-(2,3-dihydropyrrolo[3′,2′:5,6]pyridino[2,3-b][1,4]oxazin-1 (6H)-yl)-4-(2-(2-(2-isopropylphenyl)-4-(4-methoxybenzyl)piperazin-1-yl)-7-azaspiro[3.5]non-7-yl)-N-((6-nitro-7-(((tetrahydro-2H-pyran-4-yl)methyl)amino)-1H-benzo[d]imidazol-4-yl)sulfonyl)benzamide]", "IC50": "< 10"},
      {"compound": "COc1ccc(CN2CCN(C3CC4(CCN(c5ccc(C(=O)NS(=O)(=O)c6cc([N+](=O)[O-])c(NCC7CCOCC7)c7[nH]cnc67)c(N6CCCOc7nc8[nH]ccc8cc76)c5)CC4)C3)C(c3ccccc3C(C)C)C2)cc1", "note": "(stereo not drawn) [compound 092, 2-(3,4-dihydro-2H-pyrrolo[3′,2′:5,6]pyridino[2,3-b][1,4]oxazacyclohept-1 (7H)-yl)-4-(2-(2-(2-isopropylphenyl)-4-(4-methoxybenzyl)piperazin-1-yl)-7-azaspiro[3.5]non-7-yl)-N-((6-nitro-7-(((tetrahydro-2H-pyran-4-yl)methyl)amino)-1H benzo[d]imidazol-4-yl)sulfonyl)benzamide]", "IC50": "< 10"},
      {"compound": "COc1ccc(CN2CCN(C3CC4(CCN(c5ccc(C(=O)NS(=O)(=O)c6cc([N+](=O)[O-])c(NCC7(F)CCOCC7)c7[nH]cnc67)c(N6CCOc7nc8[nH]ccc8cc76)c5)CC4)C3)C(c3ccccc3C(C)C)C2)cc1", "note": "(stereo not drawn) [compound 093, 2-(2,3-dihydropyrrolo[3′,2′:5,6]pyridino[2,3-b][1,4]oxazin-1 (6H)-yl)-N-((7-(((4-fluorotetrahydro-2H-pyran-4-yl)methyl)amino)-6-nitro-1H-benzo[d]imidazol-4-yl)sulfonyl)-4-(2-(2-(2-isopropylphenyl)-4-(4-methoxybenzyl)piperazin-1-yl)-7-azaspiro[3.5]non-7-yl)benzamide]", "IC50": "< 10"},
      {"compound": "COc1ccc(CN2CCN(C3CC4(CCN(c5ccc(C(=O)NS(=O)(=O)c6cc([N+](=O)[O-])c(NCC7(F)CCOCC7)c7[nH]cnc67)c(N6CCCOc7nc8[nH]ccc8cc76)c5)CC4)C3)C(c3ccccc3C(C)C)C2)cc1", "note": "(stereo not drawn) [compound 094, 2-(3,4-dihydro-2H-pyrrolo[3′,2′:5,6]pyridino[2,3-b][1,4]oxazacycloheptane-1 (7H)-yl)-N-((7-(((4-fluorotetrahydro-2H-pyran-4-yl)methyl)amino)-6-nitro-1H-benzo[d]imidazol-4-yl)sulfonyl)-4-(2-(2-(2-isopropylphenyl)-4-(4-methoxybenzyl)piperazin-1-yl)-7-azaspiro[3.5]non-7-yl)benzamide]", "IC50": "< 10"},
      {"compound": "CC(C)c1ccccc1[C@@H]1CCCN1C1CC2(CCN(c3cc(Oc4cnc5[nH]ccc5c4)c(C(=O)NS(=O)(=O)c4cc([N+](=O)[O-])c(NC[C@H]5CC[C@](C)(O)CC5)c5occc45)cc3F)CC2)C1", "note": "[compound 095, 2-((1H-pyrrolo[2,3-b]pyrid-5-yl)oxy)-5-fluoro-N-((7-((((1r, 4r)-4-hydroxy-4-methylcyclohexyl)methyl)amino)-6-nitrobenzofuran-4-yl)sulfonyl)-4-(2-((S)-2-(2-isopropylphenyl)pyrrolidin-1-yl)-7-azaspiro[3.5]non-7-yl)benzamide]", "IC50": "< 10"},
      {"compound": "CC(C)c1ccccc1[C@@H]1CCCN1C1CC2(CCN(c3cc(Oc4cnc5[nH]ccc5c4)c(C(=O)NS(=O)(=O)c4cc([N+](=O)[O-])c(NC[C@H]5CC[C@](C)(O)CC5)c5c4OCO5)cc3F)CC2)C1", "note": "[compound 096, 2-((1H-pyrrolo[2,3-b]pyrid-5-yl)oxy)-5-fluoro-N-((7-((((1r, 4r)-4-hydroxy-4-methylcyclohexyl)methyl)amino)-6-nitrobenzo[d][1,3]dioxocyclopent-4-yl)sulfonyl)-4-(2-((S)-2-(2-isopropylphenyl)pyrrolidin-1-yl)-7-azaspiro[3.5]non-7-yl)benzamide]", "IC50": "< 10"},
      {"compound": "CC(C)c1ccccc1[C@@H]1CCCN1C1CC2(CCN(c3cc(Oc4cnc5[nH]ccc5c4)c(C(=O)NS(=O)(=O)c4cc([N+](=O)[O-])c(NC[C@H]5CC[C@](C)(O)CC5)c5ocnc45)cc3F)CC2)C1", "note": "[compound 097, 2-((1H-pyrrolo[2,3-b]pyrid-5-yl)oxy)-5-fluoro-N-((7-((((1r, 4r)-4-hydroxy-4-methylcyclohexyl)methyl)amino)-6-nitrobenzo[d]oxazol-4-yl)sulfonyl)-4-(2-((S)-2-(2-isopropylphenyl)pyrrolidin-1-yl)-7-azaspiro[3.5]non-7-yl)benzamide]", "IC50": "< 10"},
      {"compound": "CC(C)c1ccccc1[C@@H]1CCCN1C1CC2(CCN(c3cc(Oc4cnc5[nH]ccc5c4)c(C(=O)NS(=O)(=O)c4cc([N+](=O)[O-])c(NC[C@H]5CC[C@](C)(O)CC5)c5scnc45)cc3F)CC2)C1", "note": "[compound 098, 2-((1H-pyrrolo[2,3-b]pyrid-5-yl)oxy)-5-fluoro-N-((7-((((1r, 4r)-4-hydroxy-4-methylcyclohexyl)methyl)amino)-6-nitrobenzo[d]thiazol-4-yl)sulfonyl)-4-(2-((S)-2-(2-isopropylphenyl)pyrrolidin-1-yl)-7-azaspiro[3.5]non-7-yl)benzamide]", "IC50": "< 10"},
      {"compound": "CC(C)c1ccccc1[C@@H]1CCCN1C1CC2(CCN(c3cc(Oc4cnc5[nH]ccc5c4)c(C(=O)NS(=O)(=O)c4cc([N+](=O)[O-])c(NC[C@H]5CC[C@](C)(O)CC5)c5c4OCCO5)cc3F)CC2)C1", "note": "[compound 099, 2-((1H-pyrrolo[2,3-b]pyrid-5-yl)oxy)-5-fluoro-N-((8-((((1r, 4r)-4-hydroxy-4-methylcyclohexyl)methyl)amino)-7-nitro-2,3-dihydrobenzo[b][1,4]dioxan-5-yl)sulfonyl)-4-(2-((S)-2-(2-isopropylphenyl)pyrrolidin-1-yl)-7-azaspiro[3.5]non-7-yl)benzamide]", "IC50": "< 10"}
    ]}
  ]
}
